Experiments:
RSV A2 = experiment: RSV inhibition (cytopathic effect inhibition) using Viral ToxGlo assay in HEp-2 cells; format: cell-based; conditions: human respiratory syncytial virus, RSV A2, MOI 0.5, HEp-2 cells, 72 h p.i.
Procedure: Protocol for Screening Antiviral Compounds for RSV Inhibition and Cytotoxicity Using Viral ToxGlo Assay
HEp-2 cells were maintained in Eagle's minimum essential medium (EMEM) with Earle's BSS adjusted to contain 2 mM L-glutamine, 10% fetal bovine serum, 100 U/ml penicillin and 100 μg/ml streptomycin. For the purposes of the screening assay they were grown to 90% confluency, trypsinized and recovered. The trypsin was neutralised with cell culture media and cells were centrifuged at 150×g for 5 minutes before discarding the supernatant and resuspending cell pellet in assay media (EMEM with Earle's BSS adjusted to contain 2 mM L-glutamine, 2% fetal bovine serum and 100 U/ml penicillin and 100 μg/ml streptomycin). The cells were seeded into white clear-bottomed cell culture plates at a density of 1.5×10^4 cells/well in 50 μl and 4×10^3 cells/well in 25 μl for 96 well plates and 384 well plates respectively. For the media/background control column assay media only was added. Cell plates were placed in a humid chamber and incubated overnight at 37° C./5% CO2. After overnight incubation cells were checked for confluency and healthy appearance.
Test articles were made up at 10× test concentration in a maximum DMSO concentration of 10% (final assay concentration maximal 1% DMSO) and added to the cell plates in volumes of 10 μl for 96 well plates and 5 μl for 384 well plates. For cell control and virus control wells the test article solvent only was added. Virus or assay media for cytotoxicity test wells and media/cell control wells was added immediately after test articles at an MOI of 0.5, 40 or 20 μl for 96 and 384 well plates respectively. Virus suspension was prepared by thawing RSV A2 frozen stocks and diluting to the required concentration of plaque forming units in assay media on ice.
(§1) Cell plates were further incubated inside a humid chamber for 72 h p.i at 37° C./5% CO2. After the incubation period cells were observed under the microscope to check for characteristic cytopathic effect in virus control wells and healthy cells in the cell control wells. After plates were adjusted to room temperature 20/40 μl Viral ToxGlo (Promega) was added to each well of the 384/96 well cell plates. Plates were incubated at room temperature, protected from light on a plate rocker for 20 minutes before measuring the luminescence on a spectrophotometer (Biotek Synergy HTX).
RSV inhibition was calculated as percentage of cytopathic effect inhibition relative to the virus control and cytotoxicity as percentage of cell survival relative to cell control wells. This allowed EC50 values to be calculated for each test article where a virus inhibition or cytotoxic dose response was identified.

DENV-2 strain 16681 = experiment: DENV-2 inhibition (cytopathic effect inhibition) using Viral ToxGlo assay in A549 cells; format: cell-based, Dengue 2 virus; conditions: Dengue virus, DENV2, 120 h, compounds at 10 μM, MOI 0.5, 5 days p.i., read-out: % DENV-2 Inhibition Mean (n = 3)
Procedure: Protocol for Screening Antiviral Compounds for DENV-2 Inhibition and Cytotoxicity Using Viral ToxGlo Assay
A549 cells were maintained in Dulbecco's Modified Eagle Medium (DMEM) supplemented with 10% fetal bovine serum, 100 U/ml penicillin and 100 μg/ml streptomycin. For the purposes of the screening assay they were grown to 90% confluency, trypsinized and recovered. The trypsin was neutralised with cell culture media and cells were centrifuged at 150×g for 5 minutes before discarding the supernatant and resuspending cell pellet in assay media (DMEM supplemented with 2% fetal bovine serum and 100 U/ml penicillin and 100 μg/ml streptomycin). The cells were seeded into 96-well white clear-bottomed cell culture plates at a density of 1.0×10^4 cells/well in 50 μl. For the media/background control column assay media only was added. Cell plates were placed in a humid chamber and incubated overnight at 37° C./5% CO2. After overnight incubation cells were checked for confluency and healthy appearance.
Test compounds were prepared at a final concentration of 10 μM in a maximum DMSO concentration of 1% (final assay concentration maximal 0.1% DMSO) and added to the cell plates in volumes of 10 μl. For cell control and virus control wells the test article solvent only was added. As a positive inhibition control, 7-Deaza-2′-C-methyladenosine was added at 100 μM in 3 wells. Virus (DENV-2 strain 16681) or assay media for cytotoxicity test wells and media/cell control wells was added immediately after test articles at an MOI of 0.5, 40 for 96 well plates respectively. Virus suspension was prepared by thawing DENV-2 frozen stocks and diluting to the required concentration of plaque forming units in assay media.
as §1, with “5 days” for “72 h”, “20” for “20/40”, “96-well” for “384/96 well”, “temperature” for “temperature, protected from light on a plate rocker”, “5” for “20”, “(Envision, PerkinElmer).” for “(Biotek Synergy HTX).”
DENV-2 inhibition was calculated as percentage of cytopathic effect inhibition relative to the virus control and cytotoxicity as percentage of cell survival relative to cell control wells.

Row | Compound | EC50 (RSV A2) [µM] | inhibition at 10 µM (DENV-2 strain 16681) [%]
1 | CC(C)CCNC(=O)c1cccc(Nc2ccc(OCc3ccccn3)cc2C2CC2)c1 [Compound 61, 3-((2-cyclopropyl-4-(pyridin-2-ylmethoxy)phenyl)amino)-N-isopentylbenzamide] | 0.054 | 55
2 | O=C(NCC1CCCC1)c1cccc(Nc2ccc(OCc3ccccn3)cc2)c1 [Compound 62, N-(cyclopentylmethyl)-3-((4-(pyridin-2-ylmethoxy)phenyl)amino)benzamide] |  | 55
3 | O=C(NCCC(F)(F)F)c1cccc(Nc2ccc(OCc3ccccn3)cc2)c1 [Compound 65, 3-((4-(pyridin-2-ylmethoxy)phenyl)amino)-N-(3,3,3-trifluoropropyl)benzamide] |  | 77
4 | O=C(NCCC1CCCC1)c1cccc(Nc2ccc(OCc3ccccc3)cc2C2CC2)c1 [Compound 82, N-(2-(cyclopentyl)ethyl)-3-((2-cyclopropyl-4-(phenylmethoxy)phenyl)amino)benzamide] | 0.004 | 64
5 | O=C(CCC1CCCCC1)Nc1cccc(Nc2ccc(OCc3ccccc3)cc2C(F)(F)F)c1 [Compound 98, N-(3-{[4-(benzyloxy)-2-(trifluoromethyl)phenyl]amino}phenyl)-3-cyclohexylpropanamide] | 0.012 | 60
6 | CC(C)c1cc(OCc2ccccc2)ccc1Nc1cccc(OCCCC2CCCCC2)c1 [Compound 119, 4-(benzyloxy)-N-[3-(3-cyclohexylpropoxy)phenyl]-2-(propan-2-yl)aniline] | 0.107 | 104
7 | Cc1cc(OCc2ccc(F)cc2)ccc1Nc1ccc(F)c(NC(=O)CCC2CCCCC2)c1 [Compound 121, 3-cyclohexyl-N-[2-fluoro-5-({4-[(4-fluorophenyl)methoxy]-2-methylphenyl}amino)phenyl]propanamide] | 0.116 | 59
8 | Cc1cc(OCc2ccccc2)ccc1Nc1cccc(NC(=O)CCC2CCCCC2)c1 [Compound 132, N-(3-{[4-(benzyloxy)-2-methylphenyl]amino}phenyl)-3-cyclohexylpropanamide] | 0.228 | 71
9 | Cc1cc(OCc2ccccc2)ccc1Nc1ccccc1C(=O)NCCC1CCCCC1 [Compound 139, 2-{[4-(benzyloxy)-2-methylphenyl]amino}-N-(2-cyclohexylethyl)benzamide] | 0.329 | 
10 | Cc1cc(OCc2ccc(F)cc2)ccc1Nc1cccc(NC(=O)CCC2CCCCC2)c1 [Compound 140, 3-cyclohexyl-N-[3-({4-[(4-fluorophenyl)methoxy]-2-methylphenyl}amino)phenyl]propanamide] | 0.349 | 74
11 | C[Si](C)(C)Oc1cccc(Nc2ccc(OCc3ccccn3)cc2C2CC2)c1 [Compound 141, 2-cyclopropyl-4-[(pyridin-2-yl)methoxy]-N-{3-[(trimethylsilyl)oxy]phenyl}aniline] | 0.352 | 
12 | O=S(=O)(CCCC1CCCCC1)c1cccc(Nc2ccc(OCc3ccccc3)cc2C2CC2)c1 [Compound 142, 4-(benzyloxy)-N-[3-(3-cyclohexylpropanesulfonyl)phenyl]-2-cyclopropylaniline] | 0.37 | 
13 | CC(C)Cn1nnc(-c2cccc(Nc3ccc(OCc4ccccn4)cc3C3CC3)c2)n1 [Compound 147, 2-cyclopropyl-N-{3-[2-(2-methylpropyl)-2H-1,2,3,4-tetrazol-5-yl]phenyl}-4-[(pyridin-2-yl)methoxy]aniline] | 0.414 | 
14 | Cc1cc(OCc2cccnn2)ccc1Nc1cccc(OCCCC2CCCCC2)c1 [Compound 148, N-[3-(3-cyclohexylpropoxy)phenyl]-2-methyl-4-[(pyridazin-3-yl)methoxy]aniline] | 0.532 | 
15 | c1ccc(COc2ccc(Nc3cccc(SCCCC4CCCCC4)c3)c(C3CC3)c2)cc1 [Compound 149, 4-(benzyloxy)-N-{3-[(3-cyclohexylpropyl)sulfanyl]phenyl}-2-cyclopropylaniline] | 0.555 | 
16 | Cc1cc(OCc2ncccn2)ccc1Nc1cccc(OCCCC2CCCCC2)c1 [Compound 152, N-[3-(3-cyclohexylpropoxy)phenyl]-2-methyl-4-[(pyrimidin-2-yl)methoxy]aniline] | 0.802 | 
17 | Cc1cc(OCc2ccc(OC(F)(F)F)cc2)ccc1Nc1cccc(NC(=O)CCC2CCCCC2)c1 [Compound 153, 3-cyclohexyl-N-{3-[(2-methyl-4-{[4-(trifluoromethoxy)phenyl]methoxy}phenyl)amino]phenyl}propanamide] | 0.809 | 
18 | c1ccc(COc2ccc(Nc3ccccc3OCCCC3CCCCC3)c(C3CC3)c2)cc1 [Compound 154, 4-(benzyloxy)-N-[2-(3-cyclohexylpropoxy)phenyl]-2-cyclopropylaniline] | 0.81 | 
19 | OCC(O)(CCC1CCCCC1)c1cccc(Nc2ccc(OCc3ccccc3)cc2C2CC2)c1 (stereo not shown) [Compound 155, 2-(3-{[4-(benzyloxy)-2-cyclopropylphenyl]amino}phenyl)-4-cyclohexylbutane-1,2-diol] | 1.03 | 
20 | c1ccc(COc2ccc(Nc3cccc(OCCCC4CCCCC4)c3)c(C3CCOCC3)c2)cc1 [Compound 164, 4-(benzyloxy)-N-[3-(3-cyclohexylpropoxy)phenyl]-2-(oxan-4-yl)aniline] | 1.32 | 
21 | C1=C(c2cc(OCc3ccccc3)ccc2Nc2cccc(OCCCC3CCCCC3)c2)CCOC1 [Compound 165, 4-(benzyloxy)-N-[3-(3-cyclohexylpropoxy)phenyl]-2-(3,6-dihydro-2H-pyran-4-yl)aniline] | 2.36 | 
22 | c1ccc(COc2ccc(Nc3cncc(OCCCC4CCCCC4)c3)c(C3CC3)c2)nc1 [Compound 166, 5-(3-cyclohexylpropoxy)-N-{2-cyclopropyl-4-[(pyridin-2-yl)methoxy]phenyl}pyridin-3-amine] | 2.49 | 
23 | O=C(CCC1CCCCC1)Nc1cccc(Nc2ccc(OCc3ccc(C(F)(F)F)cc3)cc2C2CC2)c1 [Compound 169, 3-cyclohexyl-N-{3-[(2-cyclopropyl-4-{[4-(trifluoromethyl)phenyl]methoxy}phenyl)amino]phenyl}propanamide] |  | 59
24 | Cc1cc(OCc2ccccc2)ccc1Nc1cccc(OCC2CCCC2)c1 [Compound 175, 4-(benzyloxy)-N-[3-(cyclopentylmethoxy)phenyl]-2-methylaniline] |  | 60
25 | Cc1cc(OCc2cncnc2)ccc1Nc1cccc(OCCCC2CCCCC2)c1 [Compound 176, N-[3-(3-cyclohexylpropoxy)phenyl]-2-methyl-4-[(pyrimidin-5-yl)methoxy]aniline] |  | 85
26 | c1ccc(COc2ccc(Nc3cccc(-c4cnco4)c3)c(C3CC3)c2)nc1 [Compound 179, 2-cyclopropyl-N-[3-(1,3-oxazol-5-yl)phenyl]-4-[(pyridin-2-yl)methoxy]aniline] | 0.721 | 
27 | Cc1cc(OCc2ccccc2)ccc1Nc1cccc(OCC(=O)O)c1 [Compound 192, 2-(3-{[4-(benzyloxy)-2-methylphenyl]amino}phenoxy)acetic acid] |  | 66

Reference: patent publication US12421206B2, “Aryl-n-aryl derivatives for treating a RNA virus infection” (ABIVAX, priority 2018, dated 2025)
